The nature of experiment [1]: ATP-encapsulated liposome leakage assay, PC:PI(4,5)P2. The following applies: PC liposomes containing 5% PI(4,5)P2, concentration-dependent, compared with PC only. As to the method: Liposomes were generated as described previously using natural PI(4,5)P2 (porcine brain, in chloroform:methanol:water at 20:9:1 molar ratio) and PC (chicken egg, in chloroform) purchased from Avanti Polar Lipids. PC only or PC:PI(4,5)P2 (95:5 molar ratio) solutions were dried under a stream of nitrogen gas followed by overnight vacuum-drying. The lipid films were rehydrated to a final concentration of 5 mg/mL in 20 mM HEPES (pH 7.2) containing 5 mg/mL adenosine-5-triphosphate disodium salt (ATP; Sigma-Aldrich) at 37°C for 1 h. After three subsequent cycles of freezing (liquid nitrogen) and thawing (25°C), multilamellar liposomes were extruded 15–20 times through a mini-extruder (Avanti Polar Lipids). Free ATP was removed by three centrifugal washes with 20 mM HEPES at 16,500 g prior to the ATP release assay. Liposomes treated with 1% Triton X-100 were included as positive control and assigned as total lysis, whereas HEPES only control served as background reading. The level of ATP release at a particular time point was determined by quotient of the corrected reading (after subtracting background) of the sample at that time point and corrected reading of total lysis, as per the following equation: % Lysist=Samplet−HEPESt/Triton X−HEPES×100

The test system of experiment [2] is Primary cells, HUVEC, AHDF and CASMC. The experiment can be described thus: Tetrazolium-based cell viability assay, primary cells. Also noted: species or system human. The following applies: range over HUVEC, 48 h, MTT, estimated, three independent experiments. As to the method:
Human epithelial cervical cancer (HeLa), leukemic monocyte lymphoma (U937), prostate cancer (PC3), promyelocytic leukemia (HL-60), leukemic T cell lymphoblast (Jurkat) cells were cultured in RPMI-1640 medium supplemented with 5–10% (v/v) fetal calf serum (FCS), 100 U/mL penicillin and 100 μg/mL streptomycin (Invitrogen, Carlsbad, CA). Human umbilical vein […] cell (HUVEC) cells were cultured in M199 medium (Invitrogen) supplemented with 20% (v/v) FCS, 40 μg/mL gentamicin, 4 μg/mL endothelial cell growth factor, 4 μg/mL L-glutamine and 135 μg/mL heparin, in 0.1% (w/v) gelatin-coated Corning CELLBIND flask (Corning Life Sciences, Acton, MA). […]
Different concentrations of HBD-3 were added to cells seeded in 96-well plates in appropriate complete medium. […] After 48 h, cell viability was determined using 3-(4,5-dimethylthiazol-2-yl)-2,5-diphenyltetrazolium bromide (MTT) (Sigma-Aldrich, MO) for adherent cells (HeLa, PC3, HUVEC, AHDF, CASMC) or 3-(4,5-dimethylthiazol-2-yl)-5-(3-carboxymethoxyphenyl)-2-(4-sulfophenyl)-2H-tetrazolium (MTS) (Promega, Madison, WI) coupled with phenzine methosulfate (PMS) (Promega) for suspension cells (U937, HL-60, Jurkat) prior to absorbance measurement at 570 nm and […], respectively. Absorbance readings of untreated control wells was designated as 100% cell viability.

For experiment [3], the system named is HeLa cells. As to the kind of experiment: PI-positive counting of GFP-PH versus GFP only transfected cells by CLSM. In kind it is cell-based, human. The following applies: 15 μM HBD-3, confocal imaging over 30 min, five independent experiments. As to the method: Live imaging was performed on a Zeiss LSM-780 confocal microscope using a 63× oil immersion objective in a 37°C incubator with 5% CO2. Adherent HeLa cells were cultured overnight on coverslips while suspension U937 cells were immobilised onto 0.01% (w/v) poly-L-lysine-coated coverslips. Both cell types were prepared in serum-free RPMI 1640 medium containing 0.1% (w/v) BSA and 2 μg/mL PI. HBD-3 or BODIPY FL EDA-labeled HBD-3 was added directly to the imaging chamber to final concentration of 15 μM, via a capillary tube. In certain experiments, prior to imaging, cells were pre-stained with the membrane dye PKH67 as per manufacturer's instructions (Sigma-Aldrich) or transfected with expression vectors carrying GFP only or GFP-tagged Pleckstrin homology domain of phospholipase C-delta 1 (GFP-PH(PLCδ1)) (kindly provided by Christina Mitchell, Monash University, Australia), using Lipofectamine 3000 reagent (Invitrogen) as per manufacturer's instructions. For CLSM involving transfections, images were taken as 4×4 tiles over 30 min, and the resultant data for GFP and GFP-PH transfected cells were analysed by counting PI-positive cells.

The nature of experiment [4]: Protein-lipid overlay assay, PIP strip. In kind it is binding. The following applies: 1 μg/mL protein, immunodetection, densitometry. As to the method: Protein-lipid overlay assays using Membrane strip™ or PIP strip™ (Echelon Biosciences, Salt Lake City, UT) were performed using 1 μg/mL proteins as described previously. Lipid binding was immunodetected using a combination of rabbit anti-HBD-3 IgG (50 μg/mL) and horseradish peroxidase-conjugated donkey-anti-rabbit Ig (10 μg/mL) antibodies. Chemiluminescence signal intensity was quantitated by densitometry analysis using ImageJ (National Institutes of Health, Bethesda, MD; http://imagej.nih.gov/ij/).

The subject of experiment [5] is U937 cells. The experiment can be described thus: Neomycin inhibition of membrane permeabilisation (PI uptake). In kind it is cell-based, human. The following applies: cells pre-treated with 10 mM neomycin, PI uptake by flow cytometry; effect overcome at higher HBD-3 concentrations. As to the method:
Cells suspended at 1×10^6 cells/mL in serum-free medium containing 0.1% (w/v) bovine serum albumin (BSA) (Sigma-Aldrich) were treated with HBD-3 at 37°C for 30 min. Nucleic acid stain propidium iodide (PI) was then added to a final concentration of 1 μg/mL and cells subjected to flow cytometry analysis using BD FACSCanto II Flow Cytometer and BD FACSDiva Software v6.1.1 (BD Biosciences, San Jose, CA). For each flow cytometry reading, 10,000 cells, gated appropriately based on forward scattering and side scattering, were recorded. The resultant data were processed using FlowJo software (Tree Star, San Carlos, CA) to determine PI-positivity, which reflects the level of membrane permeabilisation. For lipid inhibition assays, 15 μM HBD-3 was pre-incubated with 50 μM synthetic lipids, including L-α-phosphatidic acid (PA), L-α-phosphatidylcholine (PC), L-α-phosphatidylethanolamine (PE), L-α-phosphatidylserine (PS), L-α-phosphatidylinositol-4-phosphate (PI(4)P), L-α-phosphatidylinositol-3,5-bisphosphate (PI(3,5)P2), L-α-phosphatidylinositol-4,5-bisphosphate (PI(4,5)P2) and L-α-phosphatidylinositol-3,4,5-trisphosphate (PI(3,4,5)P)3. All lipids were sourced from Avanti Polar Lipids, Alabaster, AL. […]
(Flow cytometry measures light scatter and fluorescence of single cells or particles in a stream.)

Where no end group is shown, it is not given here.

The values below come from article PMC4811302, “Human β-defensin 3 contains an oncolytic motif that binds PI(4,5)P2 to mediate tumour cell permeabilisation” (Oncotarget, 2015).

Take “human β-defensin 3 (GIINTLQKYYCRVRGGRCAVLSCLPKEEQIGKCSTRGRKCCRRKK; not fully specified; cysteine pairing not given here; UniProt P81534 23-67, looked up) [HBD-3, human β-defensin 3, cationic antimicrobial peptide, recombinantly expressed in P. pastoris]”: the “ATP release from ATP-encapsulated liposomes” value in experiment [1] was “much higher level of ATP was released”. The half-inhibitory concentration (IC50) – broadly, the concentration needed to halve the response being measured – in experiment [2] was 30 to 65 µM. Moreover, the “fold lower number of PI-positive cells in GFP-PH(PLCδ) versus GFP only-transfected cells” value in experiment [3] worked out at 2.5 fold. Moreover, the “binding to phosphoinositides/lipids on PIP strip” value in experiment [4] is “most strongly, PA and all phosphoinositides”. Moreover, in experiment [5], the “susceptibility of neomycin pre-incubated cells to permeabilisation compared to untreated control” value is listed as “significantly less susceptible”.
